Measurements taken from the supplement of paper PMC10307832.

Assays:
Experiment in all cases: relative viability (nuclei count vs DMSO), 5 days (fraction); higher = more cells survive
[1] = compound: C=CCn1c(=O)c2cnc(Nc3ccc(N4CCN(C)CC4)cc3)nc2n1-c1cccc(C(C)(C)O)n1 [Adavosertib] + CC(C)C[C@H](NC(=O)[C@H](Cc1ccccc1)NC(=O)c1cnccn1)B(O)O [Bortezomib] (partner 0.002 µM)
How it was run: (§1)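 For relative viability, nuclei counts in treated wells were divided by those in vehicle wells. Lung cancer cell lines had been pin-tool dosed in 1536-well plates the day after seeding and cultured for 5 days, then fixed and stained in one step (final 0.05% Triton X-100, 1% formaldehyde, 1 ug/ml Hoechst) and imaged at 4×. Doses were one drug alone or a fixed anchor-drug dose plus five library-drug doses (not always all listed) in √10 steps, and values are duplicate-plate medians.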

[2] = compound: C=CCn1c(=O)c2cnc(Nc3ccc(N4CCN(C)CC4)cc3)nc2n1-c1cccc(C(C)(C)O)n1 [Adavosertib] + CS(=O)(=O)CCNCc1ccc(-c2ccc3ncnc(Nc4ccc(OCc5cccc(F)c5)c(Cl)c4)c3c2)o1 [Lapatinib] (partner 2 µM)
How it was run: as §1

[3] = compound: C=CCn1c(=O)c2cnc(Nc3ccc(N4CCN(C)CC4)cc3)nc2n1-c1cccc(C(C)(C)O)n1 [Adavosertib] + C[C@]1(O)C[C@@H](c2nc(-c3ccc4ccc(-c5ccccc5)nc4c3)c3c(N)nccn32)C1 [Linsitinib] (partner 1 µM)
How it was run: as §1

[4] = compound: C=CCn1c(=O)c2cnc(Nc3ccc(N4CCN(C)CC4)cc3)nc2n1-c1cccc(C(C)(C)O)n1 [Adavosertib] + Cc1cc(Nc2cc(N3CCN(C)CC3)nc(Sc3ccc(NC(=O)C4CC4)cc3)n2)n[nH]1 [Tozasertib] (partner 0.1 µM)
How it was run: as §1

[5] = compound: C=CCn1c(=O)c2cnc(Nc3ccc(N4CCN(C)CC4)cc3)nc2n1-c1cccc(C(C)(C)O)n1 [Adavosertib] + O=C(c1cc(Cc2n[nH]c(=O)c3ccccc23)ccc1F)N1CCN(C(=O)C2CC2)CC1 [Olaparib] (partner 8 µM)
How it was run: as §1

Row | Cell Line | relative viability ([1]; first compound 0.01 µM) | relative viability ([1]; first compound 0.03162 µM) | relative viability ([1]; first compound 0.1 µM) | relative viability ([1]; first compound 0.3162 µM) | relative viability ([2]; first compound 0.01 µM) | relative viability ([2]; first compound 0.03162 µM) | relative viability ([2]; first compound 0.1 µM) | relative viability ([2]; first compound 0.3162 µM) | relative viability ([3]; first compound 0.01 µM) | relative viability ([3]; first compound 0.03162 µM) | relative viability ([3]; first compound 0.1 µM) | relative viability ([3]; first compound 0.3162 µM) | relative viability ([4]; first compound 0.01 µM) | relative viability ([4]; first compound 0.03162 µM) | relative viability ([4]; first compound 0.1 µM) | relative viability ([4]; first compound 0.3162 µM) | relative viability ([5]; first compound 0.01 µM) | relative viability ([5]; first compound 0.03162 µM) | relative viability ([5]; first compound 0.1 µM) | relative viability ([5]; first compound 0.3162 µM)
1 | HOP-62 | 0.941 | 1.08 | 1.03 | 1.03 | 1.14 | 1.23 | 1.04 | 1.11 | 0.981 | 1.02 | 1.09 | 1.03 | 0.356 | 0.409 | 0.414 | 0.329 | 0.429 | 0.3 | 0.663 | 0.254
2 | NCI-H2405 | 0.984 | 1.01 | 1.01 | 1.07 | 1.09 | 1.13 | 1.04 | 1.11 | 0.959 | 0.966 | 1 | 0.995 | 0.807 | 0.83 | 0.835 | 0.877 |  | 0.865 | 0.907 | 0.898
3 | HCC-78 | 0.542 | 0.46 | 0.529 | 0.573 | 0.509 | 0.972 | 0.782 | 0.868 | 0.597 | 0.422 | 0.522 | 0.562 | 0.589 | 0.348 | 0.351 | 0.464 | 0.966 | 0.807 | 0.83 | 0.835
4 | SK-LU-1 | 1.07 | 1.29 | 1.16 | 0.479 | 0.857 | 0.834 | 0.787 | 0.281 | 1.19 | 1.02 | 0.77 | 0.334 | 0.371 | 0.321 | 0.302 | 0.174 | 0.498 | 0.461 | 0.389 | 0.249
5 | NCI-H1915 | 0.93 | 0.967 | 0.987 | 0.972 | 0.984 | 0.923 | 1.02 | 0.959 | 1.11 | 1.12 | 1.14 | 1.17 | 0.433 | 0.441 | 0.509 | 0.524 | 0.258 | 0.277 | 0.264 | 0.269
6 | NCI-H1666 | 0.831 | 0.87 | 0.729 | 0.62 | 0.618 | 0.667 | 0.65 | 0.575 | 0.763 | 1.14 | 0.813 | 0.754 | 0.642 | 0.568 | 0.678 | 0.694 | 0.774 | 0.754 | 0.745 | 0.738
7 | LC-2-ad | 1.11 | 1.08 | 1.09 | 1.16 | 0.964 | 0.954 | 0.991 | 0.906 | 0.773 | 0.883 | 0.781 | 0.729 | 0.478 | 0.419 | 0.445 | 0.442 | 0.7 | 0.725 | 0.803 | 0.786
8 | NCI-H727 | 0.867 | 0.869 | 0.877 | 0.945 | 0.872 | 0.859 | 0.852 | 1.02 | 0.334 | 0.249 | 0.311 | 0.32 | 0.674 | 0.504 | 0.546 | 0.641 | 0.73 | 0.845 | 0.683 | 0.744
9 | HCC-827 | 1.02 | 1.04 | 1.06 | 1.06 | 0.198 | 0.2 | 0.215 | 0.191 | 0.985 | 0.974 | 1.03 | 0.991 | 0.402 | 0.415 | 0.46 | 0.437 | 0.627 | 0.707 | 0.709 | 0.655
10 | NCI-H2023 | 0.94 | 0.937 | 0.682 | 0.437 | 0.787 | 0.735 | 0.599 | 0.344 | 0.638 | 0.742 | 0.505 | 0.392 | 0.453 | 0.391 | 0.414 | 0.266 | 0.496 | 0.432 | 0.338 | 0.168
